According to article PMC9820531, “Porcine Relaxin but Not Serelaxin Shows Residual Bioactivity after In Vitro Simulated Intestinal Digestion—Clues for the Development of New Relaxin Peptide Agonists Suitable for Oral Delivery” (International Journal of Molecular Sciences, 2022):

Key:
RXFP1 relaxin receptor [1] = biological target: T1, RXFP1 relaxin receptor (Homo sapiens, UniProt Q9HBX9); assay: cAMP response by THP-1 cells to intact relaxins; assay type: cell-based; details: intact peptide 100 ng/mL, 15 min stimulation, IBMX 100 μM, forskolin 10^−4 M as maximum, chemiluminescent HitHunterXP cAMP II assay, triplicate points, two independent experiments
T1 construct: a marked, significant rise of cAMP in RXFP-1-expressing THP-1 cells; endogenous in cells; host or cells: THP-1 human monocytic cells (ECACC)
T1 sequence (Q9HBX9 1-757): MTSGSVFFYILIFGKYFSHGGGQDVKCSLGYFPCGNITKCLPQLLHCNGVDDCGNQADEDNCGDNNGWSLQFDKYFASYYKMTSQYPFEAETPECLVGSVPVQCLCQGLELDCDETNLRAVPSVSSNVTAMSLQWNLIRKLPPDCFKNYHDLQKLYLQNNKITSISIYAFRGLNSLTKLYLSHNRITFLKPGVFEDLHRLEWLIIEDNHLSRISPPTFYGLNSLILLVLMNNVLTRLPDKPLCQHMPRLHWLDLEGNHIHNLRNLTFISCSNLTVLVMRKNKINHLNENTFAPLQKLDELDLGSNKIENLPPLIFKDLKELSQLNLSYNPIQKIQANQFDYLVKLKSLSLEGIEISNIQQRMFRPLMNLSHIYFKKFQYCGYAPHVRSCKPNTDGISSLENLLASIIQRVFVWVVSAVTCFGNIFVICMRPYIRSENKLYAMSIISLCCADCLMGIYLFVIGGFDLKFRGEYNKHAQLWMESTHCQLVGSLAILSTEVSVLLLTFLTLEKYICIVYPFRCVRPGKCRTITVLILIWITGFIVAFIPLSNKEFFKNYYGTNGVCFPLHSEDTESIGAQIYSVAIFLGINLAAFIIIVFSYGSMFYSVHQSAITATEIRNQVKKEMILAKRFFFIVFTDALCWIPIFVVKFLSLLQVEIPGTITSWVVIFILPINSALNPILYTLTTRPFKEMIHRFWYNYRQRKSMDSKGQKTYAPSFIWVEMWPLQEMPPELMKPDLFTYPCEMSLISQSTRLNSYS
Experimental: Human monocytic THP-1 cells (European Collection of Cell Cultures ECACC, Salisbury, UK) were cultured in suspension in RPMI medium containing 10% fetal calf serum, 250 U/mL penicillin G and 250 μg/mL streptomycin in a 5% CO2 atmosphere at 37 °C. Aliquots containing 6 × 10^5 THP-1 cells in 1 mL PBS were placed in a 24-well plate, added with IBMX (100 μM) to prevent cAMP catabolism, and then incubated with intact serelaxin (100 ng/mL), pRLX (100 ng/mL) or equivalent solutions of their digestion by-products. According to previous studies, cAMP assay was carried out 15 min after addition of the stimuli, i.e., in the midst of the second, sustained cAMP surge upon RXFP1 stimulation. Measurements of cAMP were determined by the chemiluminescent HitHunterXP™ cAMP II assay (DiscoverX, Birmingham, UK). The standard curve was performed in duplicate, and the experimental points in triplicate. Since the standard curve was sigmoidal, nonlinear regression was used to extrapolate unknown experimental cAMP values, expressed as nmol/L, according to the manufacturer’s instructions. Two independent experiments were performed. For positive control, the adenylate cyclase activator forskolin (10^−4 M) was used. Finally, the values of cAMP in each experimental sample were normalized by the amount of proteins, measured by the micro-BCATM Protein Assay Kit (Pierce, IL, USA) method, and expressed as mg/mL.

RXFP1 relaxin receptor [2] = biological target: T1, RXFP1 relaxin receptor; assay: cAMP response by THP-1 cells to SIF digestion products; assay type: cell-based; details: SIF: pancreatin 500 μg/mL, CaCl2, pH 7, 37 °C, peptide 1.12 μM; digestion products tested at equivalent of 100 ng/mL on THP-1 cells, 15 min; read-out cAMP
Experimental: The effects of duodenal enzyme digestion on the noted serelaxin and pRLX preparations was carried out by addition of a simulated intestinal fluid (SIF), composed of a solution of pancreatin (500 μg/mL), CaCl2 0.75 M (0.1 v/v), pH adjusted to 7 adding dropwise an aqueous solution of NaOH 0.1 M to pRLX and serelaxin solutions. In particular: 0.5 mg/mL aqueous solution of pRLX (MW 5918, 0.084 mM) was added to SIF in a 50 mL Falcon, mixing in a 37 °C bath, to a final pRLX concentration 1.12 μM; 0.2 mL of this solution were sampled and quenched by pH adjusting (0.1 M HCl), at the following times: t = 0”/10”/20”/30”/60”/120”/600”/1800”. […]
Human monocytic THP-1 cells (European Collection of Cell Cultures ECACC, Salisbury, UK) were cultured in suspension in RPMI medium containing 10% fetal calf serum, 250 U/mL penicillin G and 250 μg/mL streptomycin in a 5% CO2 atmosphere at 37 °C. […] Measurements of cAMP were determined by the chemiluminescent HitHunterXP™ cAMP II assay (DiscoverX, Birmingham, UK). […] Since the standard curve was sigmoidal, nonlinear regression was used to extrapolate unknown experimental cAMP values, expressed as nmol/L, according to the manufacturer’s instructions. […] Finally, the values of cAMP in each experimental sample were normalized by the amount of proteins, measured by the micro-BCATM Protein Assay Kit (Pierce, IL, USA) method, and expressed as mg/mL.

[3] = parameters: method as in PMID 8257492; details: in vivo; cited from earlier work
[4] = system: acute heart failure patients; parameters: method as in PMID 31433919, PMID 31886953; details: IV infusion 30 μg/kg/day; cited from earlier work
RXFP-1 receptor = details: serelaxin versus pRLX, similar cellular models; cited from earlier work

Substance: serelaxin
- intracellular cAMP increase as % of the maximal cAMP surge induced by forskolin (RXFP1 relaxin receptor [1]): 88.6%
- SIF exposure time at which cAMP levels dropped down to levels of unstimulated control cells (RXFP1 relaxin receptor [2]): 120 s
- SIF exposure time at which the decrease in cAMP production became fully manifest and statistically significant (RXFP1 relaxin receptor [2]): 60 s
- half-life [3]: about 2 h
- effects on length of hospitalization, occurrence of cardiovascular death, and disease relapses requiring re-hospitalization in comparison with placebo [4]: no substantial effects
- affinity for the RXFP-1 receptor relative to the other relaxin (RXFP-1 receptor): higher affinity
